Reference: patent US20210009564A1, “CALPAIN MODULATORS AND THERAPEUTIC USES THEREOF” (BLADE THERAPERTICS, INC., priority 2018, published 2021)
pIC50: −log10 of the molar value.

Tests used:
Human Calpain 1/NS1 = target: T1, Human Calpain 1/NS1 (Homo sapiens, UniProt P07384); test: Calpain inhibition, continuous fluorescence (FRET substrate) assay, calpain 1; type: biochemical; conditions: SensoLyte 520 FRET substrate, 25C
T1 sequence (P07384 1-714): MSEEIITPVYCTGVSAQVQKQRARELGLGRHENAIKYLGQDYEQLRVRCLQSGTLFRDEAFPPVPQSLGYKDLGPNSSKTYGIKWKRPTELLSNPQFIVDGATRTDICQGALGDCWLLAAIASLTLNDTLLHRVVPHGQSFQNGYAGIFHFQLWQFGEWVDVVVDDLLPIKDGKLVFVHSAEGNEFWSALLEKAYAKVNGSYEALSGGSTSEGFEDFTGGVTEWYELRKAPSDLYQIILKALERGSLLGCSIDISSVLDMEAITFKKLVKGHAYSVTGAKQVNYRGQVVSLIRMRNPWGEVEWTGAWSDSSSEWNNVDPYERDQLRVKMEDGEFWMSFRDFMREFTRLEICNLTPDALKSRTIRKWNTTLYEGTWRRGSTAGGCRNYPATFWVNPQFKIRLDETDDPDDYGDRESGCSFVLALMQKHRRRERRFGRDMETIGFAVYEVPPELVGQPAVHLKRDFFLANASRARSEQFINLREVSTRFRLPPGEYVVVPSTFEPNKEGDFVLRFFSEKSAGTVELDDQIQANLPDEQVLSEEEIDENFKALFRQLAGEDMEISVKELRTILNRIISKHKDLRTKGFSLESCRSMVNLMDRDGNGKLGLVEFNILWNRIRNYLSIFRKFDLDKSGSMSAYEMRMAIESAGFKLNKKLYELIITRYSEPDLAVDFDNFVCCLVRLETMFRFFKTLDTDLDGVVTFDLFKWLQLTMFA
T1 sequence (P04632 1-268 partner): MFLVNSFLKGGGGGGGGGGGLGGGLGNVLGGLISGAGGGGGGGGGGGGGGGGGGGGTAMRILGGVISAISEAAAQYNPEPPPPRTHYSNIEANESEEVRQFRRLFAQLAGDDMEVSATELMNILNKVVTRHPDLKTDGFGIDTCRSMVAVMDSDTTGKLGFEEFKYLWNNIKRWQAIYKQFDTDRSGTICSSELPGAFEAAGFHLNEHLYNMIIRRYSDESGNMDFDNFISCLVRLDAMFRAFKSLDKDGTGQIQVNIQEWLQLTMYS
Summary of the method: (§1)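 Continuous FRET read-out (ex 490/em 520 nm) of 5-FAM/QXL 520 substrate cleavage, started by adding substrate with CaCl2 for in-situ activation after enzyme–inhibitor preincubation at 25 °C. Buffer was Tris 50 mM pH 7.5, NaCl 100 mM, DTT 1 mM. IC50 fitted (4-parameter) from rates over 1-5 min.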

Human Calpain 2/NS1 = target: T2, Human Calpain 2/NS1 (Homo sapiens, UniProt P17655); test: Calpain inhibition, continuous fluorescence (FRET substrate) assay, calpain 2; type: biochemical; conditions: SensoLyte 520 FRET substrate, 25C
T2 sequence (P17655 1-700): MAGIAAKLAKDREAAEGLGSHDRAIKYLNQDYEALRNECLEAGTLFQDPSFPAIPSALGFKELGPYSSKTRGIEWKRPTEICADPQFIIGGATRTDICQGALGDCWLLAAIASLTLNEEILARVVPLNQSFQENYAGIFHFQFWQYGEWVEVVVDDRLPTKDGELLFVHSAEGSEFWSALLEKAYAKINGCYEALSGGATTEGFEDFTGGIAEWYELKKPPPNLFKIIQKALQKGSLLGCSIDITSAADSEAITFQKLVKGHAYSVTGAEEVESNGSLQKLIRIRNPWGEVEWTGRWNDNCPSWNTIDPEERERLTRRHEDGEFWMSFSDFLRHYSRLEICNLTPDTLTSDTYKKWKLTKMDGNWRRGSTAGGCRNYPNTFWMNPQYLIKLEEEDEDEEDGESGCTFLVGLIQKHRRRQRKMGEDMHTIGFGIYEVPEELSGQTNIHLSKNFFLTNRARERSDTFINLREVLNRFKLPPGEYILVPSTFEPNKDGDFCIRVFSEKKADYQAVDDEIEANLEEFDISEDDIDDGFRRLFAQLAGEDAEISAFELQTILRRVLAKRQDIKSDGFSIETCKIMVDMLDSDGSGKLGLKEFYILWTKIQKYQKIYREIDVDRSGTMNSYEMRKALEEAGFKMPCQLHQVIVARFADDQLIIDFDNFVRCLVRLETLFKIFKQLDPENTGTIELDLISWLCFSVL
T2 sequence (P04632 1-268 partner): T1 sequence (P04632 1-268 partner)
Summary of the method: as §1

Human Calpain 9/NS1 = target: T3, Human Calpain 9/NS1 (Homo sapiens, UniProt O14815); test: Calpain inhibition, continuous fluorescence (FRET substrate) assay, calpain 9; type: biochemical; conditions: SensoLyte 520 FRET substrate, 25C
T3 sequence (O14815 1-690): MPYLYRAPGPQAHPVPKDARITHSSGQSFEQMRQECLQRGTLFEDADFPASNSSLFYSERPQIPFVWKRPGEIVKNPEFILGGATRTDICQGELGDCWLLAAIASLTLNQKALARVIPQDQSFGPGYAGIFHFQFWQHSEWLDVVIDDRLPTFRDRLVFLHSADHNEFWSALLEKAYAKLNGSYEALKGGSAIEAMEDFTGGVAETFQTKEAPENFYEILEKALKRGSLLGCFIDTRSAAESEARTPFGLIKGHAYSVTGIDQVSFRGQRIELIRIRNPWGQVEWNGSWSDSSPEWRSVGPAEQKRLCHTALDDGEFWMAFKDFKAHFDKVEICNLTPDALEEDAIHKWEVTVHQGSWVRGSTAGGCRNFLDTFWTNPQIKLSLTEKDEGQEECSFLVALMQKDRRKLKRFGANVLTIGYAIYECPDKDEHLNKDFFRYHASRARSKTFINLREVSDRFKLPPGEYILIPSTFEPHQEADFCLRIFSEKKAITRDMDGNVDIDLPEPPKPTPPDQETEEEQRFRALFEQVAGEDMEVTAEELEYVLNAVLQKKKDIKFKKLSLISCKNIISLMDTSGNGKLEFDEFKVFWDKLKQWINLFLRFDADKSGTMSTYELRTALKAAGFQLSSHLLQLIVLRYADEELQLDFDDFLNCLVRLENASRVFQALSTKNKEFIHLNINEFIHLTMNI
T3 sequence (P04632 1-268 partner): T1 sequence (P04632 1-268 partner)
Summary of the method: as §1

[1] = test system: Calpain activity in SH-SY5Y cells; test: SH-SY5Y spectrin breakdown product (SBDP-150) western blot assay; type: cell-based; conditions: Homo sapiens, read-out: SH-SY5Y Spectrin IC50
[2] = test system: Calpain activity in SH-SY5Y cells; test: SH-SY5Y Suc-LLVY-AMC fluorescence assay; type: cell-based; conditions: Homo sapiens, read-out: SH-SY5Y + AMC IC50
[3] = SH-SY5Y cells, 25 uM A23187, SBDP-150 western blot
[4] = SH-SY5Y cells, 100 uM Suc-LLVY-AMC

| Compound | pIC50 (Human Calpain 1/NS1) | pIC50 (Human Calpain 2/NS1) | pIC50 (Human Calpain 9/NS1) | pIC50 [1, 3] | pIC50 [2, 4] | pIC50 ([1]; SH-SY5Y) | pIC50 ([2]; SH-SY5Y) |
| --- | --- | --- | --- | --- | --- | --- | --- |
| COC(=O)C(=O)C(Cc1ccccc1)NC(=O)c1cn(C2CC2)nc1-c1ccccc1 (stereo not shown) [Compound 41, METHYL 3-(1-CYCLOPROPYL-3-PHENYL-1H-PYRAZOLE-4-CARBOXAMIDO)-2-OXO-4-PHENYLBUTANOATE] | > 5.52 | > 5.52 | > 5.52 | < 4.60 | > 5.00 | – | – |
| COC(=O)C(=O)C(Cc1ccccc1)NC(=O)c1oc(C)nc1-c1ccccc1F (stereo not shown) [Compound 42, METHYL 3-(4-(2-FLUOROPHENYL)-2-METHYLOXAZOLE-5-CARBOXAMIDO)-2-OXO-4-PHENYLBUTANOATE] | > 5.52 | > 5.52 | > 5.52 | > 5.00 | > 5.00 | – | – |
| Cc1cc(C(=O)NC(Cc2ccccc2)C(=O)C(N)=O)n(-c2nccc(-c3ccccc3)n2)n1 (stereo not shown) [Compound 45, N-(4-AMINO-3,4-DIOXO-1-PHENYLBUTAN-2-YL)-3-METHYL-1-(4-PHENYLPYRIMIDIN-2-YL)-1H-PYRAZOLE-5-CARBOXAMIDE] | > 5.52 | > 5.52 | > 5.52 | – | – | 4.60 to 5.00 | > 5.00 |
| Cc1occc1-c1nsnc1C(=O)NC(Cc1ccccc1)C(=O)C(N)=O (stereo not shown) [Compound 46, N-(4-AMINO-3,4-DIOXO-1-PHENYLBUTAN-2-YL)-4-(2-METHYLFURAN-3-YL)-1,2,5-THIADIAZOLE-3-CARBOXAMIDE] | > 5.52 | > 5.52 | > 5.52 | > 5.00 | > 5.00 | – | – |
| NC(=O)C(=O)C(Cc1ccccc1)NC(=O)c1nsnc1-c1coc(Cl)c1 (stereo not shown) [Compound 52, N-(4-AMINO-3,4-DIOXO-1-PHENYLBUTAN-2-YL)-4-(5-CHLOROFURAN-3-YL)-1,2,5-THIADIAZOLE-3-CARBOXAMIDE] | > 5.52 | > 5.52 | > 5.52 | 4.60 to 5.00 | < 4.60 | – | – |

Further lines, with some results ahead:

| pIC50 (Human Calpain 1/NS1) | pIC50 (Human Calpain 2/NS1) | pIC50 (Human Calpain 9/NS1) | pIC50 [1, 3] | pIC50 [2, 4] | Compound | pIC50 ([1]; SH-SY5Y) | pIC50 ([2]; SH-SY5Y) |
| --- | --- | --- | --- | --- | --- | --- | --- |
| > 5.52 | > 5.52 | > 5.52 | 4.60 to 5.00 | < 4.60 | Cn1cc(C(=O)NC(Cc2ccccc2)C(=O)C(N)=O)c(-n2cnc3ccc(F)cc32)n1 (stereo not shown) [Compound 47, N-(4-AMINO-3,4-DIOXO-1-PHENYLBUTAN-2-YL)-3-(6-FLUORO-1H-BENZO[D]IMIDAZOL-1-YL)-1-METHYL-1H-PYRAZOLE-4-CARBOXAMIDE] | – | – |
| > 5.52 | > 5.52 | > 5.52 | > 5.00 | 4.60 to 5.00 | Cn1cc(C(=O)NC(Cc2ccccc2)C(=O)C(N)=O)c(-n2cnc3cc(F)ccc32)n1 (stereo not shown) [Compound 48, N-(4-AMINO-3,4-DIOXO-1-PHENYLBUTAN-2-YL)-3-(5-FLUORO-1H-BENZO[D]IMIDAZOL-1-YL)-1-METHYL-1H-PYRAZOLE-4-CARBOXAMIDE] | – | – |
| > 5.52 | > 5.52 | > 5.52 | < 4.60 | 4.60 to 5.00 | Cn1cc(C(=O)NC(Cc2ccccc2)C(=O)C(N)=O)c(-c2ncnc3ccccc23)n1 (stereo not shown) [Compound 49, N-(4-AMINO-3,4-DIOXO-1-PHENYLBUTAN-2-YL)-1-METHYL-3-(QUINAZOLIN-4-YL)-1H-PYRAZOLE-4-CARBOXAMIDE] | – | – |
| > 5.52 | > 5.52 | > 5.52 | 4.60 to 5.00 | 4.60 to 5.00 | NC(=O)C(=O)C(Cc1ccccc1)NC(=O)c1cn(C(F)F)nc1-c1cccc2oc(=O)[nH]c12 (stereo not shown) [Compound 50, N-(4-AMINO-3,4-DIOXO-1-PHENYLBUTAN-2-YL)-1-(DIFLUOROMETHYL)-3-(2-OXO-2,3-DIHYDROBENZO[D]OXAZOL-4-YL)-1H-PYRAZOLE-4-CARBOXAMIDE] | – | – |
| > 5.52 | > 5.52 | > 5.52 | 4.60 to 5.00 | < 4.60 | Cn1cc(C(=O)NC(Cc2ccccc2)C(=O)C(N)=O)c(-c2cccc3scnc23)n1 (stereo not shown) [Compound 51, N-(4-AMINO-3,4-DIOXO-1-PHENYLBUTAN-2-YL)-3-(BENZO[D]THIAZOL-4-YL)-1-METHYL-1H-PYRAZOLE-4-CARBOXAMIDE] | – | – |
| > 5.52 | > 5.52 | > 5.52 | < 4.60 | < 4.60 | Cn1cc(C(=O)NC(Cc2ccccc2)C(=O)C(N)=O)c(-c2cccc3ccncc23)n1 (stereo not shown) [Compound 54] | – | – |
